Experiments:
[1] = Acute toxicity in ICR mouse assessed as abnormal behavior at 30 to 300 mg/kg, po measured every other day for 14 days; format: organism-based; details: in vivo, 336 h, dose 30-300 mg/kg, time 14 day
[2] = target: CYP2C19 (Homo sapiens, UniProt P33261); test: Inhibition of CYP2C19 in human liver microsomes assessed as remaining activity at 10 uM using 5-mephenytoin as substrate preincubated for 5 mins followed by NADPH generating system addition for 15 mins by LC-MS/MS method relative to control; format: ADME, Microsome; details: probe 5-mephenytoin, time 20 min, read-out: Activity
CYP2C19, sequence (P33261 whole entry): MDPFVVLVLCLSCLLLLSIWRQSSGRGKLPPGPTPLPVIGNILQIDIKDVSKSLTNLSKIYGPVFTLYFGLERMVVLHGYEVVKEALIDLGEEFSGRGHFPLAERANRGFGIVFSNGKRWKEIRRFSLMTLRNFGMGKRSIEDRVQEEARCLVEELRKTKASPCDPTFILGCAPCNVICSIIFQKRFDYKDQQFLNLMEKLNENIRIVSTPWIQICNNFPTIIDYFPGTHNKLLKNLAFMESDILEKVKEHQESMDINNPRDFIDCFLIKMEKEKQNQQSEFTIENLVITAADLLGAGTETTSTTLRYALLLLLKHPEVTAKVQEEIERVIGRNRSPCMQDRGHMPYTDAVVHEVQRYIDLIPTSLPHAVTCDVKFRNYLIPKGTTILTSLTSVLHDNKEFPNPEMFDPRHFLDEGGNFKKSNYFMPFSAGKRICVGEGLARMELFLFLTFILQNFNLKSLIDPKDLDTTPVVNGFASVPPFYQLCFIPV

[3] = Acute toxicity in ICR mouse assessed as weight loss at 30 to 300 mg/kg, po measured every other day for 14 days; format: organism-based; details: in vivo, 336 h, dose 30-300 mg/kg, time 14 day
[4] = Acute toxicity in ICR mouse assessed as change in food intake at 30 to 300 mg/kg, po measured every other day for 14 days; format: organism-based; details: in vivo, 336 h, dose 30-300 mg/kg, time 14 day
[5] = Acute toxicity in ICR mouse assessed as change in water intake at 30 to 300 mg/kg, po measured every other day for 14 days; format: organism-based; details: in vivo, 336 h, dose 30-300 mg/kg, time 14 day
[6] = Acute toxicity in ICR mouse assessed as digestive disorder at 30 to 300 mg/kg, po measured every other day for 14 days; format: organism-based; details: in vivo, 336 h, dose 30-300 mg/kg, time 14 day
[7] = Acute toxicity in ICR mouse assessed as change in kidney weight at 30 to 300 mg/kg, po measured every other day for 14 days […]; format: organism-based; details: in vivo, 336 h, dose 30-300 mg/kg, time 14 day
[8] = Acute toxicity in ICR mouse assessed as change in liver weight at 30 to 300 mg/kg, po measured every other day for 14 days […]; format: organism-based; details: in vivo, 336 h, dose 30-300 mg/kg, time 14 day
[9] = Acute toxicity in ICR mouse assessed as change in histology of heart at 30 to 300 mg/kg, po measured every other day for 14 days by H and E staining based assay; format: organism-based; details: in vivo, 336 h, dose 30-300 mg/kg, time 14 day
[10] = Acute toxicity in ICR mouse assessed as change in histology of kidney at 30 to 300 mg/kg, po measured every other day for 14 days by H and E staining based assay; format: organism-based; details: in vivo, 336 h, dose 30-300 mg/kg, time 14 day
[11] = Acute toxicity in ICR mouse assessed as change in histology of liver at 30 to 300 mg/kg, po measured every other day for 14 days by H and E staining based assay; format: organism-based; details: in vivo, 336 h, dose 30-300 mg/kg, time 14 day
[12] = Cmax in Sprague-Dawley rat at 1 mg/kg, iv by LC-MS analysis; format: ADME, organism-based; details: in vivo
[13] = AUC(0 to t) in Sprague-Dawley rat at 1 mg/kg, iv by LC-MS analysis; format: ADME, organism-based; details: in vivo
[14] = Volume of distribution at steady state in Sprague-Dawley rat at 1 mg/kg, iv by LC-MS analysis; format: ADME, organism-based; details: in vivo, read-out: Vdss
[15] = Cmax in Sprague-Dawley rat at 1 mg/kg, po by LC-MS analysis; format: ADME, organism-based; details: in vivo
[16] = AUC(0 to t) in Sprague-Dawley rat at 1 mg/kg, po by LC-MS analysis; format: ADME, organism-based; details: in vivo
[17] = Half life in Sprague-Dawley rat at 1 mg/kg, po by LC-MS analysis; format: ADME, organism-based; details: in vivo
[18] = Mean residence time in Sprague-Dawley rat at 1 mg/kg, po by LC-MS analysis; format: ADME, organism-based; details: in vivo
[19] = Cmax in Sprague-Dawley rat at 5 mg/kg, po by LC-MS analysis; format: ADME, organism-based; details: in vivo
[20] = AUC(0 to t) in Sprague-Dawley rat at 5 mg/kg, po by LC-MS analysis; format: ADME, organism-based; details: in vivo
[21] = Half life in Sprague-Dawley rat at 5 mg/kg, po by LC-MS analysis; format: ADME, organism-based; details: in vivo
[22] = target: T1, Amine oxidase [flavin-containing] B (Homo sapiens, UniProt P27338); test: Inhibition of MAOB (unknown origin)
T1 sequence (P27338 whole entry): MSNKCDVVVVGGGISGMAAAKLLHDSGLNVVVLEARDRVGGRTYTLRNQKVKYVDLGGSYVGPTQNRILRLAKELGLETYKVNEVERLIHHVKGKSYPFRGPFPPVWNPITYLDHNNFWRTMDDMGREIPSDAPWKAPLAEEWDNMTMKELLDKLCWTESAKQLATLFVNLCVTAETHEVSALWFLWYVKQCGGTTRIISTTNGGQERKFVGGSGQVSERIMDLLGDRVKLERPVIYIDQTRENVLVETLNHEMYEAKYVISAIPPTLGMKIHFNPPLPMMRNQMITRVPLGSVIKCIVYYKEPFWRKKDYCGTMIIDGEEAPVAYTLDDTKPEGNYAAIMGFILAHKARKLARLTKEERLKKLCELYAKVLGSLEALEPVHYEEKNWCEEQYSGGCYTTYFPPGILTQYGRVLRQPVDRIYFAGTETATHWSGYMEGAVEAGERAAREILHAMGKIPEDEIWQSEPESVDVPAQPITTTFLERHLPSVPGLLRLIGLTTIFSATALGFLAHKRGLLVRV

[23] = target: Prostaglandin G/H synthase 1 (Homo sapiens, UniProt P23219); test: Inhibition of COX-1 (unknown origin)
Prostaglandin G/H synthase 1, sequence (P23219 whole entry): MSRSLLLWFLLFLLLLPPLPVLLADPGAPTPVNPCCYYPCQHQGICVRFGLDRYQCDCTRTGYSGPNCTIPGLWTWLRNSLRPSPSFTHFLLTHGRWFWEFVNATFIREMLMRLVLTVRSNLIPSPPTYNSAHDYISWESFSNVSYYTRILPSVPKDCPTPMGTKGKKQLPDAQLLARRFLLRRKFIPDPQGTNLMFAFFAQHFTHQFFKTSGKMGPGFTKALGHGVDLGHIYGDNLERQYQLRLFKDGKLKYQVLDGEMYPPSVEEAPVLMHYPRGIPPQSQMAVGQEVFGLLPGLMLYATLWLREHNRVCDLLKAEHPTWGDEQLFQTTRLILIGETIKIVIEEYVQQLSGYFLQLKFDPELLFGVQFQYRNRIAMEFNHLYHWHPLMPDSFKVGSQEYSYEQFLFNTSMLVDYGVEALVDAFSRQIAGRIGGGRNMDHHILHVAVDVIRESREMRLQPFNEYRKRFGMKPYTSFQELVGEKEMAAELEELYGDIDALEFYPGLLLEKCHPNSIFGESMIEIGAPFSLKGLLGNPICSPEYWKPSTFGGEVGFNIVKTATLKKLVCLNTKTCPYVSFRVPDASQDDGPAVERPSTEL

[24] = target: T2, G-protein coupled estrogen receptor 1 (Homo sapiens, UniProt Q99527); test: Inhibition of GPER1 (unknown origin)
T2 sequence (Q99527 whole entry): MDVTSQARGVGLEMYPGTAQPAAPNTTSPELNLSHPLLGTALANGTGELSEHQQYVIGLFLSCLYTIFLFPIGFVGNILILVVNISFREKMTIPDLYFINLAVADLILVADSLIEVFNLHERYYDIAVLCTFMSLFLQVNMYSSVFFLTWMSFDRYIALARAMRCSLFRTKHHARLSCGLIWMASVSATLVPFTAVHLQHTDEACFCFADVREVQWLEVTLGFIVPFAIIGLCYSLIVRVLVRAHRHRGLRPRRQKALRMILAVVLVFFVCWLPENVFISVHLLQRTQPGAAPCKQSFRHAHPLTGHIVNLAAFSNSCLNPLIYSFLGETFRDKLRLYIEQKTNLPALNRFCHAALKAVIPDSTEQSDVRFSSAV

[25] = target: T2, G-protein coupled estrogen receptor 1; test: Binding affinity to human GPER by SPR method
[26] = system: HT-29; test: Induction of apoptosis in human HT-29 cells assessed as viable cells at 1 uM incubated for 24 hrs by Annexin V FITC/PI staining based flow cytometry analysis ( Rvb = 99 +/- 0.1%); format: functional; details: read-out: Activity
[27] = system: HT-29; test: Induction of apoptosis in human HT-29 cells assessed as viable cells at 5 uM incubated for 24 hrs by Annexin V FITC/PI staining based flow cytometry analysis ( Rvb = 99 +/- 0.1%); format: functional; details: read-out: Activity
[28] = system: HT-29; test: Induction of apoptosis in human HT-29 cells assessed as viable cells at 10 uM incubated for 24 hrs by Annexin V FITC/PI staining based flow cytometry analysis ( Rvb = 99 +/- 0.1%); format: functional; details: read-out: Activity
[29] = system: U-937; test: Induction of apoptosis in human U-937 cells assessed as viable cells at 1 uM incubated for 24 hrs by Annexin V FITC/PI staining based flow cytometry analysis ( Rvb = 95.2 +/- 0.4%); format: functional; details: read-out: Activity
[30] = system: U-937; test: Induction of apoptosis in human U-937 cells assessed as viable cells at 5 uM incubated for 24 hrs by Annexin V FITC/PI staining based flow cytometry analysis ( Rvb = 95.2 +/- 0.4%); format: functional; details: read-out: Activity
[31] = system: U-937; test: Induction of apoptosis in human U-937 cells assessed as viable cells at 10 uM incubated for 24 hrs by Annexin V FITC/PI staining based flow cytometry analysis ( Rvb = 95.2 +/- 0.4%); format: functional; details: read-out: Activity

Question: Which results are given for `Cc1nc(NC(=O)c2sc3cc(F)ccc3c2Cl)c(C)c(C)c1O`?
Answer: Activity [1]: Non-Toxic; activity at 0.25 h, 10 µM [2]: 98.3%; Activity [3]: Non-Toxic; Activity [4]: Non-Toxic; Activity [5]: Non-Toxic; Activity [6]: Non-Toxic; Activity [7]: Non-Toxic; Activity [8]: Non-Toxic; Activity [9]: Non-Toxic; Activity [10]: Non-Toxic; Activity [11]: Non-Toxic; Cmax [12]: 1880 ng/mL; AUCt [13]: 10006.6 ng·h/mL; Vd [14]: 1.3 L/kg; Cmax [15]: 51.9 ng/mL; AUCt [16]: 246.3 ng·h/mL; half-life [17]: 3.8 h; MRT [18]: 5.7 h; Cmax [19]: 760 ng/mL; AUCt [20]: 1849.2 ng·h/mL; half-life [21]: 3.3 h; IC50 [22]: 54 nM; IC50 [23]: 800 nM; EC50 [24]: 480 nM; Kd [25]: 23.7 nM; viability at 1 µM [26]: 98.8%; viability at 5 µM [27]: 98.7%; viability at 10 µM [28]: 98.6%; viability at 1 µM [29]: 95.4%; viability at 5 µM [30]: 95.2%; viability at 10 µM [31]: 95.2%

— ChEMBL document CHEMBL5523723, “G Protein-Coupled Estrogen Receptor-Mediated Anti-Inflammatory and Mucosal Healing Activity of a Trimethylpyridinol Analogue in Inflammatory Bowel Disease” (J Med Chem, 2024)
